Source: patent publication US8173144B2, “Administration of urea compounds for combating signs of cutaneous aging” (L'Oreal, priority 2004, dated 2012)

Tested on: acid proteases of the SC (stratum corneum)
Test: Activation of acid proteases of the stratum corneum (Enzchek fluorimetry, Bodipy FL casein substrate)
Type: biochemical
Procedure: The property of activating certain acid proteases of the SC (stratum corneum) is evaluated. This activity is measured by virtue of a quantitative determination by fluorimetry using the Enzchek kit (Molecular Probes). This protocol uses a Bodipy FL casein substrate which releases fluorescence when it is hydrolyzed. The fluorescence released is directly proportional to the protease activity. It is read directly in a 96-well plate with a spectrofluorimeter at 750 V at 485 nm in excitation and 535 nm in emission.
The molecules are prepared at 0, 1, 2 and 4M in a 0.1M; pH 5.0; acetate buffer.
An enzyme extract is prepared from acetone powders.
2 ml of PBS buffer+0.1% of Triton X100 are brought into contact for 1 h in crushed ice with 200 mg of stratum corneum acetone powders. The mixture is subsequently ground in a Potter homogenizer and then centrifuged at 15 000 g for 10 min at 4° C. The supernatant is collected. The Enzchek substrate, diluted to 1/200, is incorporated in each solution comprising the molecules. The assays are repeated three times.
The reaction mixture is prepared directly in a white plate.
10 μl of enzyme extract are added to 200 μl of solution comprising the substrate at 0, 1, 2 or 4M. The readings are carried out at t0, t 2h, t 16h and t 24h.

[1] = 1 and 2M in 0.1M acetate buffer pH 5.0, readings t0, t 2h, t 16h, t 24h

For `NC(=O)NCCO` [N-(2-hydroxethyl)urea, N-(2-hydroxyethyl)urea], the “acid protease activity (fluorescence) with respect to the control” value (“acid protease activity (fluorescence)” for short) [1] was “significant increase in the activity” and the “acid protease activity (fluorescence)” value (4M in 0.1M acetate buffer pH 5.0, whatever the time studied) was “marked decrease in the activity”.
For `NC(N)=O` [Urea, urea], the “acid protease activity (fluorescence)” value [1] was “slightly activating effect on the acid proteases up to two hours”.
